The numbers were not newly measured in US20050287587A1, “Production of glycosylated macrolides in E. coli” (The Board of Trustees of the Leland Stanford Junior …, priority 2002, published 2005), which cites them from elsewhere.

The conditions of the data set: general background statement, no strain or method given.

On to `CC[C@H]1OC(=O)[C@H](C)[C@@H](O)[C@H](C)[C@@H](O)[C@@H](C)C[C@@H](C)C(=O)[C@H](C)[C@@H](O)[C@H]1C` [6-deoxyerythronolide B], for which the antibacterial activity entry was “no antibacterial activity”.
